Molecular target: T1, GST-NEMO and FLAG-IKKβ (Homo sapiens, UniProt Q9Y6K9)
T1 construct: Recombinant full-length NEMO tagged with GST at the N-terminus; purchased SignalChem (GST-NEMO); Origene (IKKβ-FLAG)
Assay: IKKβ-NEMO binding assay (GST pull-down, recombinant proteins)
Conditions: at 12.5 μM; 15 nM each protein
Procedure: To determine whether the novel NBD mimetics target the NEMO-IKKβ interaction in vivo, co-immunoprecipitations were performed using extracts from Raw 264.7 macrophages (Fig 5A). […] No interaction between NEMO and TNF receptor-associated factor 2 (TRAF2) or IκBα was observed under these conditions. […] The levels of phosphorylated IKK complex, IκBα, and p65 in response to TNF-α and LPS were all reduced by SR12343 (Fig 5D & 5E). […] However, there were no changes in the levels of phospho-c-Jun N-terminal kinase (p-JNK), p-p38MAPK, total JNK, and p38MAPK by treatment with SR12343 (150 μM) in response to TNF-α or LPS stimulation (Fig 5G & 5H). […]
(A) Co-IP analysis detecting the IKKβ/NEMO interaction. […] NEMO-binding products were then analyzed for levels of IKKβ, IKKα, TRAF2, and IκBα (negative control), and levels of NEMO were used as a loading control (left panel). […] The levels of IKKβ-FLAG binding to GST-NEMO were determined by western blot analysis with GST-NEMO used as a loading control. […] Cell lysates were analyzed for activity of the IKK/NF-κB signaling pathway including activation of IKK complex, IκBα, and p65. […] Cell lysates were harvested and analyzed for activation of noncanonical NF-κB signaling, the processing of p100 to p52. […]

T1 sequence (Q9Y6K9 whole entry): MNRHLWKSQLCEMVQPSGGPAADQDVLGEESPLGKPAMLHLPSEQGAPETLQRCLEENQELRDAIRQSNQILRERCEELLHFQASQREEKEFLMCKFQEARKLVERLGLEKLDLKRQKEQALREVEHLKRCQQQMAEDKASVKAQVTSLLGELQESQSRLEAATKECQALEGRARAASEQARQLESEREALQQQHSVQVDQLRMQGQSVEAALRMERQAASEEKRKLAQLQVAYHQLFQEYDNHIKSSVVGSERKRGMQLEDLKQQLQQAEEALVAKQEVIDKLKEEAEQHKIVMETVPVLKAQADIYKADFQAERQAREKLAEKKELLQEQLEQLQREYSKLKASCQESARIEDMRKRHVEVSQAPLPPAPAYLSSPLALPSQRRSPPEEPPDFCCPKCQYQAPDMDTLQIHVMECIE

## O=C(CNc1ccc(Cl)cn1)NCCc1cccc(Br)c1 [SR12343]
  Disruption of interaction between GST-NEMO and FLAG-IKKβ: able to disrupt

Reference: paper PMC6013238, “Development of novel NEMO-binding domain mimetics for inhibiting IKK/NF-κB activation” (PLoS Biology, 2018)
